Experimental data reported in patent US11351178B2, “Selective HDAC6 inhibitors” (ITALFARMACO S.P.A., priority 2017, dated 2022).

Key:
[1] = target: T1, recombinant human HDAC6 (Homo sapiens, UniProt Q9UBN7); assay: Enzymatic screening on recombinant human HDAC6; format: biochemical; conditions: Table 2; read-out: HDAC6 IC50
T1 sequence (Q9UBN7 1-1215): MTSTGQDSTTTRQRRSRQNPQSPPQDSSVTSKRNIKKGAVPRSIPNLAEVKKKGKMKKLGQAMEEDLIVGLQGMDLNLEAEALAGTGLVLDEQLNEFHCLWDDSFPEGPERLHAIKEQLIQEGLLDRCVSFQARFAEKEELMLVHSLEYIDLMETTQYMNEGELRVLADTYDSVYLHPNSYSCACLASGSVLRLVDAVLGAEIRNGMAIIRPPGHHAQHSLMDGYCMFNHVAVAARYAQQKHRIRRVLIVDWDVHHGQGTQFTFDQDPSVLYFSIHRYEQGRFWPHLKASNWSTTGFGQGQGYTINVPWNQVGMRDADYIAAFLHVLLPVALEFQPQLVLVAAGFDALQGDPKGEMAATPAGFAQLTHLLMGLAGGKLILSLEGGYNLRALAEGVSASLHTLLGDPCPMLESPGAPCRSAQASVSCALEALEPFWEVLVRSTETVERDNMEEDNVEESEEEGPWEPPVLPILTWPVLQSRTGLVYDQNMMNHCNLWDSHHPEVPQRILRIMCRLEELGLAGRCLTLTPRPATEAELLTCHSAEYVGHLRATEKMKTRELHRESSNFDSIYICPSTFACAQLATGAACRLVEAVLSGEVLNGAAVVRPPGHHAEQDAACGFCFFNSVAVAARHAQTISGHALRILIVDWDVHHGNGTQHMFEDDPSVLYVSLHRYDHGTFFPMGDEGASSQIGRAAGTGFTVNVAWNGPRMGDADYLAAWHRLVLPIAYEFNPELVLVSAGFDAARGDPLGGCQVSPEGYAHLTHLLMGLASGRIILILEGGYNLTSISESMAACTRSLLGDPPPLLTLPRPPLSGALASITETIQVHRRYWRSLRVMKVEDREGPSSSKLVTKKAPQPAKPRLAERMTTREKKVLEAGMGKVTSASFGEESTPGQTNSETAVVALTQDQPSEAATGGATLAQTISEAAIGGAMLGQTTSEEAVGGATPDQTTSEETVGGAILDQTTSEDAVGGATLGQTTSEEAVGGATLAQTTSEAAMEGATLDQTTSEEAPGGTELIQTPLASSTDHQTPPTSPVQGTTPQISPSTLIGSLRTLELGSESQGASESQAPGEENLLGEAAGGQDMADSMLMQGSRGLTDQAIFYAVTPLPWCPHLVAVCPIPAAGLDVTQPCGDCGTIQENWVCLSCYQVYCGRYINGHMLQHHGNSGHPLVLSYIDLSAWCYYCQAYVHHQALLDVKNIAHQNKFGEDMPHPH
Outline: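 Substrates were Fluor de Lys, Fluor de Lys-Green or trifluoroacetyl-L-lysine, in 25 mM Tris-HCl pH 8, 130 mM NaCl, 0.05% Tween-20, 10% glycerol. They were added after isoform-dependent preincubation of recombinant human enzyme with compound at 30 °C, and the reaction also ran at 30 °C.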

[2] = tested on: B 697 promyelocytic cell line; assay: Cytotoxicity on 697 cell line (CellTiter 96); format: cell-based; conditions: 72 hours incubation, read-out: 697 TOXICITY
Experimental: (§1) Cytotoxic activity was evaluated on B 697 […] cell line for all synthesized compounds and on peripheral blood mononuclear cells (PBMCs) for compounds showing a good potency/selectivity profile.
(§2) Cells were seeded in plate (2×10^4 cells per well for 697, 5×10^5 cells per well for PBMCs). The test compounds (concentrations from 1.5 nM to 10000 nM for PBMCs and from 1 nM to 10000 nM for 697) were added after 24 hours and incubated 72 hours. The molecules cytotoxic activity was evaluated using CellTiter 96© Aqueous One Solution Cell Proliferation Assay (Promega), which measures the mitochondria function, following the manufacturer's instructions.

[3] = tested on: peripheral blood mononuclear cells (PBMCs); assay: Cytotoxicity on PBMCs (CellTiter 96); format: cell-based; conditions: PBMC, 72 h; read-out: PBMC TOXICITY (72 h)
Experimental: as §1, §2

[4] = Stability to Phase I metabolism in rat S9 liver fraction; format: in vitro ADME; conditions: after 90 min, 37° C.
Outline: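 Compounds were incubated with rat or human liver S9 fraction at 37 °C for up to 90 min. Reactions were quenched on ice with acidified acetonitrile and analysed by HPLC-UV or LC-MS/MS. Percent remaining versus time zero and intrinsic clearance were calculated.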

[5] = Stability in rat plasma; format: in vitro ADME; conditions: after 4 hours, 37° C.
Outline: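 Compounds incubated at 37° C in rat or human plasma at 50 μM (UV/HPLC) or 1 or 2 μM (LC-MS/MS) for 0–4 h. Reaction stopped with acidified acetonitrile on ice; percent remaining versus initial amount and plasma half-life calculated.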

IC50 [1] [nM]	residual percentage in rat S9 fraction [4] [%]	residual percentage in rat plasma [5] [%]	SMILES	IC50 [2] [µM]	IC50 [3] [nM]
45			Cn1c(Cc2cccc3cccnc23)nnc1Sc1c(F)cc(C(=O)NO)cc1F [comp. 164, 3,5-difluoro-4-[[4-methyl-5-(8-quinolylmethyl)-1,2,4-triazol-3-yl]sulfanyl]benzenecarbohydroxamic acid]	1.4	661
12	47	94	Cn1c(Sc2c(F)cc(C(=O)NO)cc2F)nnc1-c1ccc2ccccc2n1 [comp. 122, 3,5-difluoro-4-[[4-methyl-5-(2-quinolyl)-1,2,4-triazol-3-yl]sulfanyl]benzenecarbohydroxamic acid]	1.03	
23			Cn1c(Sc2c(F)cc(C(=O)NO)cc2F)nnc1C1(c2cccnc2)CC1 [comp. 178, 3,5-difluoro-4-[[4-methyl-5-[1-(3-pyridyl)cyclopropyl]-1,2,4-triazol-3-yl]sulfanyl]benzenecarbohydroxamic acid]	50.3	> 10000
11	84		Cn1c(Sc2c(F)cc(C(=O)NO)cc2F)nnc1-c1cnc2ccccn12 [comp. 149, 3,5-difluoro-4-[(5-imidazo[1,2-a]pyridin-3-yl-4-methyl-1,2,4-triazol-3-yl)sulfanyl]benzenecarbohydroxamic acid]	0.794	
25	36	73	O=C(NO)c1cc(F)c(Sc2nnc(CN3CCCC3)n2Cc2ccccc2)c(F)c1 [comp. 141, 4-[[4-benzyl-5-(pyrrolidin-1-yl-methyl)-1,2,4-triazol-3-yl]sulfanyl]-3,5-difluoro-benzenecarbohydroxamic acid]	> 10	
13	45	93	O=C(NO)c1cc(F)c(Cn2nnnc2-c2ccc(C(F)(F)F)cn2)c(F)c1 [comp. 129, 3,5-difluoro-4-[[5-[5-(trifluoromethyl)-2-pyridyl]tetrazol-1-yl]methyl]benzenecarbohydroxamic acid]	13.2	
10	95	76	O=C(NO)c1cc(F)c(Cn2nnc(Cc3ccccn3)n2)c(F)c1.O=C(O)C(F)(F)F [comp. 134, 3,5-difluoro-4-[[5-(2-pyridylmethyl)tetrazol-2-yl]methyl]benzenecarbohydroxamic acid;2,2,2-trifluoroacetic acid]	> 10	
17	36	97	O=C(NO)c1cc(F)c(Cn2nnnc2-c2scc3c2OCCO3)c(F)c1 [comp. 5, 4-((5-(2,3-dihydrothieno[3,4-b][1,4]dioxin-5-yl)-1H-tetrazol-1-yl)methyl)-3,5-difluoro-N-hydroxybenzamide]	88.7	
12	25	100	Cn1c(Sc2c(F)cc(C(=O)NO)cc2F)nnc1-c1nccc2ccccc12 [comp. 121, 3,5-difluoro-4-[[5-(1-isoquinolyl)-4-methyl-1,2,4-triazol-3-yl]sulfanyl]benzenecarbohydroxamic acid]	5.91	
20	59		O=C(NO)c1cc(F)c(Sc2nnc(-c3ccncc3)n2Cc2ccco2)c(F)c1 [comp. 146, 3,5-difluoro-4-[[4-(2-furylmethyl)-5-(4-pyridyl)-1,2,4-triazol-3-yl]sulfanyl]benzenecarbohydroxamic acid]	> 10	
9	62	87	CN1CCN(S(=O)(=O)c2cccc(-c3nnc(Sc4c(F)cc(C(=O)NO)cc4F)n3C)c2)CC1 [comp. 151, 3,5-difluoro-4-[[4-methyl-5-[3-(4-methylpiperazin-1-yl)sulfonylphenyl]-1,2,4-triazol-3-yl]sulfanyl]benzenecarbohydroxamic acid]	0.287	
16	76	89	O=C(NO)c1cc(F)c(Sc2nnc(-c3cccnc3)n2Cc2ccco2)c(F)c1 [comp. 147, 3,5-difluoro-4-[[4-(2-furylmethyl)-5-(3-pyridyl)-1,2,4-triazol-3-yl]sulfanyl]benzenecarbohydroxamic acid]	> 10	
4	44	87	O=C(NO)c1ccc(Cn2nnc(-c3ccco3)n2)cc1 [comp. 12, 4-((5-(furan-2-yl)-2H-tetrazol-2-yl)methyl)-N-hydroxybenzamide]	> 10	
7	22	75	O=C(NO)c1cc(F)c(Cn2nnnc2-c2nccc3ccccc23)c(F)c1 [comp. 94, 3,5-difluoro-4-[[5-(1-isoquinolyl)tetrazol-1-yl]methyl]benzenecarbohydroxamic acid]	0.908	
22	31	113	Cn1c(Sc2c(F)cc(C(=O)NO)cc2F)nnc1-c1cccc(S(=O)(=O)N2CCN(Cc3ccccc3)CC2)c1 [comp. 152, 4-[[5-[3-(4-benzylpiperazin-1-yl)sulfonylphenyl]-4-methyl-1,2,4-triazol-3-yl]sulfanyl]-3,5-difluoro-benzenecarbohydroxamic acid]	1.45	
1370			O=C(O)c1ccc(Cc2nnnn2Cc2ccc(C(=O)NO)cc2)cc1 [comp. 159, 4-[[1-[[4-(hydroxycarbamoyl)phenyl]methyl]tetrazol-5-yl]methyl]benzoic acid]	16.9	
20	34	106	Cn1c(Sc2c(F)cc(C(=O)NO)cc2F)nnc1C(C)(C)c1ccccc1 [comp. 4, 3,5-difluoro-N-hydroxy-4-((4-methyl-5-(2-phenylpropan-2-yl)-4H-1,2,4-triazol-3-yl)thio)benzamide]	> 10	
138			O=C(O)c1ccc(-c2nnn(Cc3ccc(C(=O)NO)cc3)n2)nc1 [comp. 162, 6-[2-[[4-(hydroxycarbamoyl)phenyl]methyl]tetrazol-5-yl]pyridine-3-carboxylic acid]	16.9	

SMILES	IC50 [1] [nM]	residual percentage in rat S9 fraction [4] [%]	residual percentage in rat plasma [5] [%]	IC50 [2] [µM]	IC50 [3] [nM]
O=C(NO)c1ccc(Cn2nnc(-c3ncccn3)n2)cc1 [comp. 123, 4-[(5-pyrimidin-2-yltetrazol-2-yl)methyl]benzenecarbohydroxamic acid]	8	99	99	1.97	
Cn1c(Sc2c(F)cc(C(=O)NO)cc2F)nnc1C1(c2ccccc2)CCN(Cc2ccccc2)CC1 [comp. 150, 4-[[5-(1-benzyl-4-phenyl-4-piperidyl)-4-methyl-1,2,4-triazol-3-yl]sulfanyl]-3,5-difluoro-benzenecarbohydroxamic acid]	24	35	92	1.26	
